We go through 2 compounds from US20260355199A1, “COMPOSITIONS AND METHODS FOR TREATING OR PREVENTING NONALCOHOLIC STEATOHEPATITIS (NASH), ANOREXIA, DEPRESSION, ENDOMETRIOSIS, AND OTHER DISEASES OR DISORDERS” (priority 2022, published 2026).

Entries after “also recorded” stand apart in the source; their conditions may differ.

One data set concerns Agrp promoter. Description: hMeDIP-qPCR (5hmC) at the Agrp promoter in mouse ARC. The format is in vivo. Conditions: leptin- vs. saline-treated. As for the experimental part:
To assess leptin effects on suppression of hunger-induced appetite, female Cas9+ mice injected with AAV or AAV-sgTet3 bilaterally into the ARC were fasted overnight for 22 h. On the second day, mouse leptin (L3772-1MG, Sigma Aldrich) was administrated at 5 mg/kg intraperitoneally at 10:00 and pre-weighed food was placed in the cage and monitored for the following 24 h. For ChIP studies, Cas9+ mice injected with AAV or AAVsgTet3 bilaterally into the ARC were fasted overnight for 22 h. On the second day, saline or leptin (5 mg/kg) was administrated intraperitoneally at 10:00. Two hours later, ARCs were isolated for ChIP-qPCR analysis. To examine leptin-induced protein-protein interactions, Cas9+ mice were fasted overnight for 22 h. […]
The experiments were carried out using the EpiQuik hMeDIP Kit (P-1038-48, Epigentek) according to the manufacturer's instructions. […] Sheared DNA fragments (ranged in size from 200-600 bps as assessed by agarose gel electrophoresis) were immunoprecipitated using the 5hmC rabbit polyclonal antibody from the kit. qPCR was performed in a 25 μl reaction containing 2.5 μl of the eluted DNA using iTAC SYBGreen in a Bio-Rad iCycler. The relative enrichments (after normalization against control IgG) of the indicated DNA regions were calculated using the Percent Input Method according to the manufacturer's instructions.

A further data set has as its system Cas9+ mice. The data set can be described thus: Post-fast refeeding study with leptin. The format is in vivo, mouse. As to conditions: leptin 5 mg/kg i.p. As for the experimental part: To assess leptin effects on suppression of hunger-induced appetite, female Cas9+ mice injected with AAV or AAV-sgTet3 bilaterally into the ARC were fasted overnight for 22 h. On the second day, mouse leptin (L3772-1MG, Sigma Aldrich) was administrated at 5 mg/kg intraperitoneally at 10:00 and pre-weighed food was placed in the cage and monitored for the following 24 h. For ChIP studies, Cas9+ mice injected with AAV or AAVsgTet3 bilaterally into the ARC were fasted overnight for 22 h. On the second day, saline or leptin (5 mg/kg) was administrated intraperitoneally at 10:00. Two hours later, ARCs were isolated for ChIP-qPCR analysis. To examine leptin-induced protein-protein interactions, Cas9+ mice were fasted overnight for 22 h. On the second day, leptin was administrated at 5 mg/kg intraperitoneally at 10:00, and ARCs were isolated 2 h later, followed by co-IP studies.

The next data set has as its system THP-1 cells. The data set can be described thus: TUNEL assay in THP-1 cells. The format is cell-based, human. Conditions: THP-1, 10 μM, 48 h. The procedure: For TET3 expression restoration experiments, cells seeded in 24-well plates were infected with Ad-GFP or Ad-TET3 at 4000 gc/cell. Following 16 h of infection, vehicle or Bobcat339 were added at a final concentration of 10 μM. Protein and RNA were isolated 48 hours later and analyzed.
These were performed using the In Situ Cell Death Detection Kit (Sigma Aldrich, 12156792910). Briefly, cells were fixed with 4% paraformaldehyde in PBS for 1 h at RT and rinsed with PBS, followed by permeabilization with 0.1% Triton X-100 in 0.1% sodium citrate for 2 min on ice. TUNEL reaction mixture was added and incubation was carried out at 37 °C for 60 min. DAPI was added to counter-stain the cells for 1 min. The slides were coverslipped and scoped using a Keyence BZ-X700 fluorescence microscope.

For data set [1], the system named is high fat diet (HFD)-induced diabetic mice. The data set can be described thus: Feeding of HFD-induced diabetic mice. The data set is classed as in vivo, mouse. Conditions: drinking water, two weeks. From the text: It has previously been shown that TET3 expression is aberrantly elevated in the livers of humans and mice with type 2 diabetes and that liver-specific, siRNA-mediated TET3 knockdown improves glucose homeostasis both in dietary and genetic mouse models of diabetes (Li D. et al., 2020, Nature Communications, 11:342). Bobcat339 (4-Amino-1-[1,1′-biphenyl]-3-yl-5-chloro-2(1H)-pyrimidinone) is a synthetic cytosine derivative capable of binding competitively with 5mC to the active sites of [COMPOUND LEFT OUT] and inhibits their enzymatic activity in cultured neuronal cells (Chua G. N. L. et al., 2019, ACS Medicinal Chemistry Letters, 10:180-185). Although not bound by any particular theory, it was hypothesized that Bobcat339 has an anti-diabetic effect owing to its ability to inhibit [COMPOUND LEFT OUT]. Thus, the present studies employed high fat diet (HFD)-induced diabetic mice that were treated with Bobcat339 in drinking water for two weeks. […] Thus, nondiabetic mice fed on regular chow were treated with Bobcat339 in drinking water. Four days later, ARCs were isolated from ad libitum-fed mice and analyzed. […] In light of these observations, additional studies began to explore [COMPOUND LEFT OUT] in AgRP neurons for a potential role in the control of feeding and energy metabolism.

The nature of data set [2]: Tolerability of Bobcat339 in mice. The data set is classed as in vivo, mouse. Conditions: disease models in mice.
The subject of data set [3] is activity-based anorexia (ABA) mice. Conditions: temporal (3 days); cited from earlier work.

For “leptin: adipose hormone; mouse leptin L3772-1MG or human leptin L4146-1MG, Sigma Aldrich”, in the data set on Agrp promoter, the “5hmC in the Agrp promoter” value is “an increase in 5hmC in the Agrp promoter”. For the same compound, the hunger-induced appetite entry with Cas9+ mice (AAV control mice) is “suppressed hunger-induced appetite in control mice”; with Cas9+ mice (TET3 knockdown (AAV-sgTet3) mice) it was “failed to do so in TET3 knockdown animals”.

As to `Nc1nc(=O)n(-c2cccc(-c3ccccc3)c2)cc1Cl` [Bobcat339, 4-Amino-1-[1,1′-biphenyl]-3-yl-5-chloro-2(1H)-pyrimidinone], in the data set with THP-1 cells, the “apoptosis (TUNEL)” value is on record as “a significant increase in apoptotic cell death”. Moreover, the feeding result in data set [1] is “became hyperphagic”. For the same compound, the “side effects / toxicity” value in data set [2] is “without discernible toxicity; also recorded: without discernible side effects; also recorded: no discernible toxicity”. Besides, the food intake result in data set [3] was “increase food intake”.
